# Measured values published in PubChem BioAssay AID2060487 (Molecular Pharmacology Branch, DTP, NCI, 2025).
# Values joined by “and” are separate entries in the source; they are usually repeats but may differ in a detail not shown here. Identical values can stand only once.
# Tested on: 997537-175-T-J1-PDC complex spheroid viability
# Experiment: Anticancer human tumor 997537-175-T-J1-PDC patient-derived colon adenocarcinoma cell line growth inhibition [GQUAD]
# Conditions: for viability, T/C: stronger effect = lower value
# Excerpt: DNA G-quadruplex Stabilizer Agents in Combinations in Complex Spheroids
# A high-throughput screen of multi-cell type tumor spheroids was designed to identify active combinations of DNA G-quadruplex stabilizer agents and targeted small molecules. Complex spheroids include a stromal component modeled by human endothelial cells (HUVEC) and fibroblasts modeled by human mesenchymal stem cells (MSCs). The concentration ranges selected for each drug and investigational agent were based upon clinically achievable concentrations if the clinical Cmax of the agent was known.
# Compounds. The drugs and investigational agents: pidnarulex (CX-5461; NSC782164), APTO-253 (NSC789042), BRACO-19 (NSC847499), peposertib (NSC802822), ceralasertib (NSC780249), elimusertib (NSC800525), camonsertib (NSC841442), AZD-1390 (NSC803789), olaparib (NSC753686), talazoparib (NSC767125), ART-558 (NSC835418), sotorasib (NSC818433), MRTX-1133 (NSC836407), SN-38 (NSC673596), topotecan (NSC609699), etoposide (NSC141540), doxorubicin (NSC123127), gemcitabine (NSC613327), 5-fluorouracil (NSC19893), paclitaxel (NSC125973), vemurafenib (NSC761431), panobinostat (NSC761190), R-306465 (JNJ-16241199; NSC773264), adavosertib (NSC754352), TP-3654 (NSC805149), carboplatin (NSC241240), KSQ-4279 (NSC840948), and staurosporine (NSC755774) were obtained from the National Cancer Institute (NCI) Developmental Therapeutics Program Chemical Repository (34). The FDA-approved anticancer drug set is available from the NCI Developmental Therapeutics Program. […] The stock solutions were prepared in dimethyl sulfoxide (DMSO, Sigma-Aldrich, St. Louis, MO, cat. D2650) at 800-fold the tested concentration and stored at -70 degrees C prior to their use. All drugs and investigational agents were tested over a range starting from a high concentration at or near the clinical Cmax and decreasing in half-log increments. If the clinical Cmax for an agent had not been determined, the highest concentration tested was 10 microM.
# 2.3 Cell Culture. All cells were maintained in an incubator at 37 degrees C and 5% CO2 with 95% humidity. The PDC lines were cultured according to standard operating procedures established by the NCI PDMR. All PDCs were thawed and cultured in Matrigel-coated flasks prepared with a working solution of 1X Ham's F-12 nutrient mix, without supplementation (Invitrogen, cat. 11765054), 100 U/mL penicillin-streptomycin (Invitrogen, cat. 15140122), and 2.5% Matrigel (Corning Inc., cat. 354248) for the first three passages. The 857933-349-R-J2-PDC line was cultured in 6C/Colon 1B media, which includes advanced DMEM/F-12 (Thermo Fisher Scientific, cat. 12634028), 10 mM HEPES (Thermo Fisher Scientific, cat. 15630080), 1X GlutaMAX supplement (Thermo Fisher Scientific, cat. 35050061), 0.1 mg/mL primocin (InvivoGen, cat. ant-pm-2), 10% defined fetal bovine serum, heat inactivated (HyClone Laboratories Inc., cat. SH30070.03HI), 50% L-WRN conditioned media (ATCC, cat. CRL-3276), 1.25 mM N-Acetyl-L-cysteine (Sigma-Aldrich, cat. A9165), 10 mM nicotinamide (Sigma-Aldrich, cat. N0636), 1X B-27 supplement (Thermo Fisher Scientific, cat. 17504044), 1X N-2 supplement (Thermo Fisher Scientific, cat. 17502048), 10 microM Y-27632 dihydrochloride (Tocris Bioscience, cat. 1254), and 50 ng/mL human EGF recombinant protein (Thermo Fisher Scientific, cat. PHG0311). The 485176-168-R4-J1-PDC line was cultured in Panc media, which includes all 6C/Colon 1B media components plus 100 ng/mL human FGF-10 (Thermo Fisher Scientific, cat. 100-26), 500 nM SB-431542 (Selleckchem, cat. S1067), and gastrin (Tocris, cat. 3006).
# […]
# [1] = curve of first compound, second compound 0.0316 µM
# [2] = curve of first compound, second compound 0.1 µM
# [3] = curve of first compound, second compound 0.316 µM
# [4] = curve of first compound, second compound 1 µM
# [5] = curve of first compound, second compound 3.16 µM
# [6] = curve of first compound, second compound 10 µM
# [7] = second compound 0.0316 µM, first compound 0.0316 µM
# [8] = second compound 0.0316 µM, first compound 0.1 µM
# [9] = second compound 0.0316 µM, first compound 0.316 µM
# [10] = second compound 0.0316 µM, first compound 1 µM
# [11] = second compound 0.0316 µM, first compound 3.16 µM
# [12] = second compound 0.0316 µM, first compound 10 µM
# [13] = second compound 0.1 µM, first compound 0.0316 µM
# [14] = second compound 0.1 µM, first compound 0.1 µM
# [15] = second compound 0.1 µM, first compound 0.316 µM
# [16] = second compound 0.1 µM, first compound 1 µM
# [17] = second compound 0.1 µM, first compound 3.16 µM
# [18] = second compound 0.1 µM, first compound 10 µM
# [19] = second compound 0.316 µM, first compound 0.0316 µM
# [20] = second compound 0.316 µM, first compound 0.1 µM
# [21] = second compound 0.316 µM, first compound 0.316 µM
# [22] = second compound 0.316 µM, first compound 1 µM
# [23] = second compound 0.316 µM, first compound 3.16 µM
# [24] = second compound 0.316 µM, first compound 10 µM
# [25] = second compound 1 µM, first compound 0.0316 µM
# [26] = second compound 1 µM, first compound 0.1 µM
# [27] = second compound 1 µM, first compound 0.316 µM
# [28] = second compound 1 µM, first compound 1 µM
# [29] = second compound 1 µM, first compound 3.16 µM
# [30] = second compound 1 µM, first compound 10 µM
# [31] = second compound 3.16 µM, first compound 0.0316 µM
# [32] = second compound 3.16 µM, first compound 0.1 µM
# [33] = second compound 3.16 µM, first compound 0.316 µM
# [34] = second compound 3.16 µM, first compound 1 µM
# [35] = second compound 3.16 µM, first compound 3.16 µM
# [36] = second compound 3.16 µM, first compound 10 µM
# [37] = second compound 10 µM, first compound 0.0316 µM
# [38] = second compound 10 µM, first compound 0.1 µM
# [39] = second compound 10 µM, first compound 0.316 µM
# [40] = second compound 10 µM, first compound 1 µM
# [41] = second compound 10 µM, first compound 3.16 µM
# [42] = second compound 10 µM, first compound 10 µM
# 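Also: spheroids exposed to the agents for 7 days.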
# 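For viability, T/C in this document: 100% = DMSO vehicle control viability.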
compound,measurement,setting,value
C=CC(=O)N1CCN(c2nc(=O)n(-c3c(C)ccnc3C(C)C)c3nc(-c4c(O)cccc4F)c(F)cc23)C(C)C1 (stereo not drawn) + Cc1[nH]c2ccc(F)cc2c1-c1nc2c3cccnc3c3ncccc3c2[nH]1,IC50,[1],> 10 µM
same,IC50,[2],> 10 µM
same,IC50,[3],> 10 µM
same,IC50,[4],> 10 µM
same,IC50,[5],> 10 µM
same,IC50,[6],> 10 µM
same,"viability, T/C",[7],102%
same,"viability, T/C",[8],89.9%
same,"viability, T/C",[9],86.2%
same,"viability, T/C",[10],92.5%
same,"viability, T/C",[11],91.7%
same,"viability, T/C",[12],97.5%
same,"viability, T/C",[13],91.1%
same,"viability, T/C",[14],71.1%
same,"viability, T/C",[15],87.9%
same,"viability, T/C",[16],75.4%
same,"viability, T/C",[17],101%
same,"viability, T/C",[18],92%
same,"viability, T/C",[19],92.4%
same,"viability, T/C",[20],65.8%
same,"viability, T/C",[21],74.8%
same,"viability, T/C",[22],85.9%
same,"viability, T/C",[23],95.3%
same,"viability, T/C",[24],96.5%
same,"viability, T/C",[25],92.8%
same,"viability, T/C",[26],89.9%
same,"viability, T/C",[27],87.9%
same,"viability, T/C",[28],83.2%
same,"viability, T/C",[29],90.2%
same,"viability, T/C",[30],97.6%
same,"viability, T/C",[31],80.7%
same,"viability, T/C",[32],72.5%
same,"viability, T/C",[33],74.3%
same,"viability, T/C",[34],89%
same,"viability, T/C",[35],100%
same,"viability, T/C",[36],80%
same,"viability, T/C",[37],82.3%
same,"viability, T/C",[38],75.8%
same,"viability, T/C",[39],87.3%
same,"viability, T/C",[40],69.8%
same,"viability, T/C",[41],79.3%
same,"viability, T/C",[42],84.3%
COc1cc(C2c3cc4c(cc3C(OC3OC5COC(C)OC5C(O)C3O)C3COC(=O)C23)OCO4)cc(OC)c1O (stereo not drawn),"viability, T/C",compound 0.0316 µM,109% and 95.5% and 112%
same,"viability, T/C",compound 0.1 µM,89.4% and 75.1% and 76.9%
same,"viability, T/C",compound 0.316 µM,77.2% and 92.8% and 91.9%
same,"viability, T/C",compound 1 µM,93.1% and 76.8% and 89%
same,"viability, T/C",compound 3.16 µM,82.3% and 81.8% and 82.2%
same,"viability, T/C",compound 10 µM,60.9% and 54.7% and 74.6%
same,IC50,curve of compound,> 10 µM
COc1cccc2c1C(=O)c1c(O)c3c(c(O)c1C2=O)CC(O)(C(=O)CO)CC3OC1CC(N)C(O)C(C)O1 (stereo not drawn) + Cc1[nH]c2ccc(F)cc2c1-c1nc2c3cccnc3c3ncccc3c2[nH]1,IC50,[1],> 10 µM
same,IC50,[2],9.79 µM
same,IC50,[3],8.04 µM
same,IC50,[4],8.48 µM
same,IC50,[5],6.46 µM
same,IC50,[6],5.6 µM
same,"viability, T/C",[7],97.6%
same,"viability, T/C",[8],82.8%
same,"viability, T/C",[9],101%
same,"viability, T/C",[10],97.7%
same,"viability, T/C",[11],95.5%
same,"viability, T/C",[12],51.1%
same,"viability, T/C",[13],80.7%
same,"viability, T/C",[14],78%
same,"viability, T/C",[15],95.4%
same,"viability, T/C",[16],91.7%
same,"viability, T/C",[17],96.9%
same,"viability, T/C",[18],49.2%
same,"viability, T/C",[19],101%
same,"viability, T/C",[20],83.3%
same,"viability, T/C",[21],80.7%
same,"viability, T/C",[22],96.9%
same,"viability, T/C",[23],79.8%
same,"viability, T/C",[24],43.1%
same,"viability, T/C",[25],76.2%
same,"viability, T/C",[26],91.3%
same,"viability, T/C",[27],92.7%
same,"viability, T/C",[28],85.4%
same,"viability, T/C",[29],80.3%
same,"viability, T/C",[30],44.9%
same,"viability, T/C",[31],74%
same,"viability, T/C",[32],64.4%
same,"viability, T/C",[33],84.1%
same,"viability, T/C",[34],83.6%
same,"viability, T/C",[35],95.1%
same,"viability, T/C",[36],31.4%
same,"viability, T/C",[37],67.6%
same,"viability, T/C",[38],86.5%
same,"viability, T/C",[39],94.1%
same,"viability, T/C",[40],88.7%
same,"viability, T/C",[41],66.7%
same,"viability, T/C",[42],33.2%
CCCS(=O)(=O)Nc1ccc(F)c(C(=O)c2c[nH]c3ncc(-c4ccc(Cl)cc4)cc23)c1F,"viability, T/C",compound 0.0316 µM,98.4% and 98.6% and 86.2%
same,"viability, T/C",compound 0.1 µM,99.3% and 95.1% and 77.8%
same,"viability, T/C",compound 0.316 µM,97.4% and 68.8% and 65.1%
same,"viability, T/C",compound 1 µM,89.6% and 71.8% and 53%
same,"viability, T/C",compound 3.16 µM,45.4% and 56.1% and 52.3%
same,"viability, T/C",compound 10 µM,34.9% and 24.1% and 25%
same,IC50,curve of compound,2.81 µM and 3.15 µM and 1.79 µM
